Experimental data published in patent US11351130B2, “Prevention and reversal of inflammation induced DNA damage” (Indiana University Research and Technology Corporation, priority 2017, dated 2022).
pIC50: −log10 of the molar value.

Legend:
[1] = test system: neuronal cultures derived from DRG; assay: CGRP release from DRG neuronal cultures (Example 1); assay type: cell-based, rat
Protocol: (§1) Dorsal root ganglia (DRG) were dissected from all spinal levels of adult male (150-175 g) Sprague-Dawley rats (Envigo, Indianapolis, Ind.) and the cells were dissociated as previously described (Kelley et al., 2014). Briefly, the rats were euthanized by CO2 asphyxiation. DRGs were transferred into collagenase solution (1 mg/ml) and incubated for 1 hour at 37° C. The digested DRGs were then rinsed with growth medium, centrifuged and dissociated by mechanical agitation. Approximately 30,000 cells were plated into each well of 12-well culture plates. All culture dishes were precoated with poly-D-lysine and laminin. Cells were maintained in F-12 media supplemented with 10% horse serum, 2 mM glutamine, 100 μg/ml Normocin, 50 μg/ml penicillin, 50 μg/ml streptomycin, 50 μM 5-fluoro-2′-deoxyuridine, 150 μM uridine, and 30 ng/ml of NGF in 3% CO2 at 37° C. Growth medium was changed every other day.
(§2) Small interfering RNAs to APE1 (APE1siRNA) and scrambled siRNA (SCsiRNA) controls were used to decrease APE1 protein expression in sensory neuronal cell cultures and as controls, respectively, as described previously (Vasko et al., 2005, Jiang et al., 2008a). On day 3 in culture, the growth media was replaced with 0.5 ml of Opti-MEM 1 media containing 100 nM of APE1siRNA (5′-[…]-3′ (SEQ ID NO:1)) or SCsiRNA (5′-[…]-3′(SEQ ID NO:2)); (Vasko et al., 2005)) and 10 μl of the transfecting reagent, Neuroporter. On the next day, 0.5 ml of the growth media without antibiotics was added to each well, and after an additional 24 hours the media containing siRNA was replaced with normal growth media.
(§3) Lentiviral constructs containing (1) the CMV promoter, HA-tagged APE1, IRES, and enhanced green fluorescent protein (EGFP); or (2) CMV, IRES, and EGFP were developed. DNA sequencing confirmed the constructs in the pLenti6-R4R2-V5 plasmid containing WT-, C65-, or 226+177-APE1-IRES-EGFP. For lentiviral infections, DRG cells were cultured 5 days before 150 pfu/cell of the lentivirus was added to the media. Two days later, the virus was removed and the cells grown an additional 5 days in regular media.
After neuronal cultures were treated with the appropriate drugs, the cultures were washed once with HEPES buffer consisting of (in mM) 25 HEPES, 135 NaCl, 3.5 KCl, 2.5 CaCl2, 1 MgCl2, 3.3 D-glucose, and 0.1% bovine serum albumin, pH 7.4 and maintained at 37° C. They were then incubated for successive 10-minute intervals with 0.4 ml of HEPES buffer alone (basal release), with buffer containing 30 nM capsaicin, then with buffer alone (to assess return to basal release). After each incubation, the buffer was removed and the amount of immunoreactive CGRP in each sample was measured using radioimmunoassay as previously described (Chen et al., 1996). After the release experiment, the cells in each well were in 0.4 ml of 0.1 M HCl10 minutes and an aliquot taken to measure total CGRP content in the cultures using radioimmunoassay. Total content (fmol/well) was calculated by adding the total amount released in all incubations to the amount measured in the cells. The release data is calculated as fmol released/well/10 minutes.

[2] = target: T1, Ref-1/APE1 (Rattus norvegicus, UniProt P43138); assay: Ref-1/APE1 endonuclease activity in isolated sensory neurons; assay type: cell-based
T1 construct: When isolated sensory neurons were exposed to APX3330; endogenous in cells; host or cells: isolated sensory neurons

[3] = test system: DRG; assay: Cisplatin ± APX3330 in neuroblastoma tumor-bearing mice; assay type: in vivo
From the text: Neuroblastoma cells were implanted subcutaneously into the right flanks of 6-wk old male NSG mice and allowed to proliferate until tumor volumes ≥150 mm^3. Mice were then randomized for treatment with cisplatin±APX3330 treatment.

[4] = test system: NFκB; assay: NF-κB luciferase reporter transactivation assay; assay type: cell-based; conditions: read-out: inhibition of NFκB binding to the reporter construct, IC50
Protocol: Reporter assays were performed as previously described (Georgiadis et al., 2008; Kelley et al., 2011; Cardoso et al., 2012b; Luo et al., 2012). Cells were transfected with NF-κB-Luciferase construct containing an NF-κB-response promoter and driving the expression of a luciferase gene and a Renilla luciferase control reporter vector pRL-CMV. After a 24-hour transfection period, cells were lysed, and Firefly and Renilla luciferase activities were assayed using Renilla luciferase activity for normalization. All of the transfection experiments were performed in triplicate and repeated at least three times in independent experiments. Data are expressed as mean±standard error from a representative experiment, and Student's t tests were performed.

[5] = Pharmacokinetics (PK); conditions: in vivo
Protocol: PK studies were performed in the IU Simon Cancer Center Clinical Pharmacology Analytical Core (CPAC), as previously described for E3330 (Fishel et al., 2011) and standards for the compounds used. P450 metabolism studies using human microsomes were also performed in CPAC directed by Dr. David Jones.

[6] = test system: neuronal cultures derived from DRG; assay: pH2A.X immunoblotting in DRG neuronal cultures (Example 1); assay type: cell-based, rat
Protocol: as §1, §2, §3
Tissues or cells were harvested, lysed in RIPA buffer (Santa Cruz Biotechnology; Santa Cruz, Calif., USA), sonicated, and cleared of cellular debris by centrifuging at 4000 RPM for 2 minutes. Protein was quantified using Lowry assay, and electrophoresed in a 12% SDS-polyacrylamide gel. After electrophoresis, proteins were transferred to a PVDF membrane, and blocked with Tris-buffered saline containing 0.1% Tween-20 (TBST) and 5% nonfat dry milk for 1 hour at room temperature while gently agitating. Mouse monoclonal antihuman Ape1 antibodies (1:1000), mouse monoclonal anti-phospho H2AX antibodies (1:1000), mouse monoclonal anti-vinculin antibody (1:1000), and anti-Hemagglutinin (HA) antibody were added to the blocking solution and incubated for 2 hours at room temperature while gently agitating. Antibody binding was detected following appropriate secondary antibody methods using chemiluminescence. The density of the bands was measured using Quantity One software from Bio-Rad (Hercules, Calif.) and data expressed as density normalized to vinculin.

T1 sequence (P43138 whole entry): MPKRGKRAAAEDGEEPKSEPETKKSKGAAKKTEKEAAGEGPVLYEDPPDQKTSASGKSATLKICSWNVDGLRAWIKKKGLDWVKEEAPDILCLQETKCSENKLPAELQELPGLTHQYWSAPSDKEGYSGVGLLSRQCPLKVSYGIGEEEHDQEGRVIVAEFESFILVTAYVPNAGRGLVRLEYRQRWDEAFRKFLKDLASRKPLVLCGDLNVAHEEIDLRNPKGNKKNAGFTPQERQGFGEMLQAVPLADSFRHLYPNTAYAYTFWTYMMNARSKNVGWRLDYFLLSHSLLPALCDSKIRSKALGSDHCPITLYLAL

With `CCCCCCCCC/C(=C\C1=C(C)C(=O)C(OC)=C(OC)C1=O)C(=O)O` [APX3330] the “effect on MCP-1-induced change in CGRP release” value ([1]; E3330, MCP-1 0.3 μg/ml) was “prevented the change in CGRP release induced by MCP-1 exposure”, the “stimulated release of CGRP in LPS-treated cultures” value ([1]; SCsiRNA-treated cultures, LPS 3 μg/ml 24 hours plus APE1 expression or E3330) was 9.7±0.8 % of total content and the Ref-1/APE1 endonuclease activity [2] was “concentration-dependent increase in Ref-1/APE1 endonuclease activity”. The “cisplatin or oxaliplatin's tumor-killing efficacy” value ([3]; in vivo (data not shown)) was “did not affect cisplatin or oxaliplatin's tumor-killing efficacy in vivo”, the “oxidative DNA damage in DRG neurons” value ([3]; in vivo (data not shown)) was “protects DRG neurons from oxidative DNA damage” and the “neurotoxicity induced by systemic administration of cisplatin” value ([3]; tumor-bearing mice) was “attenuated neurotoxicity”. For the same compound, the pIC50 [4] was 4.35, the half-life [5] was 3.6 h and the “effect on LPS induction of pH2A.X” value ([6]; E3330 20 μM pretreatment, LPS 3 μg/ml 24 hours, SCsiRNA- and APE1siRNA-treated cultures) was “prevented the induction of pH2A.X”. The “effect on MCP-1 induction of pH2A.X” value ([6]; E3330, SCsiRNA or APE1siRNA cultures, MCP-1 0.3 μg/ml 24 hours) was “prevented the induction of pH2A.X by MCP-1”.
